Results as given in patent US8735391B2, “Synthesis of functionalized octahydro-isoquinolin-1-one-8-carboxamides, octahydro-isoquinolin-1-one-8-carboxylic esters and analogs, and therapeutic methods” (University of Kansas, priority 2008, dated 2014).

Assays:
[1] = target: DOR (Homo sapiens, UniProt P41143); assay: Opioid secondary binding, DOR (Table 4); settings: Opioid secondary binding activity for Formula 10 analogs
[2] = target: T1, KOR (Homo sapiens, UniProt P41145); assay: Opioid secondary binding, KOR (Tables 4, 5, 8, 9); settings: Opioid secondary binding activity for Formula 10 analogs; read-out: KOR, Ki
T1 sequence (P41145 whole entry): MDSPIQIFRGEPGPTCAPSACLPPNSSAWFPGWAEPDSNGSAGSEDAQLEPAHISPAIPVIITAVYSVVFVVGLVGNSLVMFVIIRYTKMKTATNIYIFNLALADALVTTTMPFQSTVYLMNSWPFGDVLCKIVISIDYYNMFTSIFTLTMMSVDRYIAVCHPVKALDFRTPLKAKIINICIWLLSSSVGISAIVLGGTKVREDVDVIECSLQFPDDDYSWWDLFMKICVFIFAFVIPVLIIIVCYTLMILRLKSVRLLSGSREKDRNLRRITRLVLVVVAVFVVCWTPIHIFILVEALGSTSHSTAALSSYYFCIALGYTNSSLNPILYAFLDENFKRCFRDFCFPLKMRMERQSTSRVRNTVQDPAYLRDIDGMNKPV

[3] = target: T1, KOR; assay: [35S]GTPγS binding functional agonist assay on membranes of CHO cells expressing hKOR (reference agonist U69593); assay type: biochemical; set-up: expressed in transfected cells; host or cells: CHO cells, stably transfected; crude membrane fractions; settings: test compound at 10 micromolar; N=4; reference agonist = 100%; CHO-cell line expressing hKOR
Procedure: The compounds prepared herein were tested for bioactivity with opioid receptors. Agonist assays: Data represent the percent efficacy (relative to cognate agonist) of the test compound at 10 micromolar. The response to a saturating concentration of a reference antagonist or to vehicle (usually none or negligible) is set to 0%. […] The response inhibition elicited by a saturating concentration of reference antagonist is set to 100%; the response inhibition (usually none or negligible) elicited by vehicle is set to 0%. The following tables provide data related to the bioactivity for opioid receptors of the compounds described herein.
Table 6 provides data that represent the average percent efficacy (N=4; relative to cognate agonist) of the test compound at 10 micromolar concentration. The response to a saturating concentration of cognate/reference agonist is set to 100%; the response to a saturating concentration of a reference antagonist or to vehicle (usually none or negligible) is set to 0%. All functional assays are performed on stably transfected CHO-cell lines expressing hKOR, hMOR or hDOR.
(§1) Serial dilutions of the test and reference compounds are made in binding buffer at 2× assay concentration (final assay concentrations ranging from 0.1 nM to 10 μM). Crude membrane fractions (1.8 to 3.5 cm2/well) (prepared from 10-cm plates by harvesting PBS-rinsed monolayers, resuspending and lysing in chilled, hypotonic 50 mM Tris-HCl, pH 7.4, centrifuging at 20,000×g, decanting the supernatant and storing at −80 degrees centigrade; typically, one 10-cm plate provides sufficient material for 24 wells) are resuspended in 1.2 ml of assay buffer containing 20 μM GDP, wheat germ agglutinin (WGA)-coated scintillation proximity beads (2.4 mg), and [35S]GTPγS (300 pM final). The suspension is then added (50 μl/well) to 50 μl of the 2× test or reference compounds (each concentration assayed in triplicate) in flexible transparent PET 96-well plates. The reaction plate is sealed and incubated for 90 min at room temperature, then centrifuged for 5 min at 216×g, and finally loaded into a Wallac MicroBeta TriLux counter. Non-specific [35S]GTPγS binding is assessed at the maximum concentration of reference agonist in the presence of 10 μM antagonist. The background signal is measured at 10 μM reference agonist in the presence of 10 μM unlabeled GTPγS. Raw data (dpm) representing total [35S]GTPγS binding (i.e., specific+non-specific binding) are calculated as a percentage of the maximum response by the reference agonist (in this case U69593).
as §1, with “GTPγS.” for “GTPγS. Raw data (dpm) representing total [35S]GTPγS binding (i.e., specific+non-specific binding) are calculated as a percentage of the maximum response by the reference agonist (in this case U69593).”

[4] = target: MOR (Homo sapiens, UniProt P35372); assay: Opioid secondary binding, MOR (Tables 4, 5, 8); settings: Opioid secondary binding activity for Formula 10 analogs; read-out: MOR, Ki
Chain of MOR (P35372 whole entry): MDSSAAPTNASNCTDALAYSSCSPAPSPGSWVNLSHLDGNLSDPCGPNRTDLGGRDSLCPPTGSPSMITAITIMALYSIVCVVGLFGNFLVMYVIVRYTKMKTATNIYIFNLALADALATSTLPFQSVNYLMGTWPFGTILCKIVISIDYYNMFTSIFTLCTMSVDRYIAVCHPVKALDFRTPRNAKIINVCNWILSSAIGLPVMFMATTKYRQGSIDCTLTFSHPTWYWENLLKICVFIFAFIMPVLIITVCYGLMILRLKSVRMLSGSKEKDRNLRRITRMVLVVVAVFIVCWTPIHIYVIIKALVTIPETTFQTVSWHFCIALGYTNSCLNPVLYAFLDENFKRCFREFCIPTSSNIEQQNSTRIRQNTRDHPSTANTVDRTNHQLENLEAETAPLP

Chain of DOR (P41143 whole entry): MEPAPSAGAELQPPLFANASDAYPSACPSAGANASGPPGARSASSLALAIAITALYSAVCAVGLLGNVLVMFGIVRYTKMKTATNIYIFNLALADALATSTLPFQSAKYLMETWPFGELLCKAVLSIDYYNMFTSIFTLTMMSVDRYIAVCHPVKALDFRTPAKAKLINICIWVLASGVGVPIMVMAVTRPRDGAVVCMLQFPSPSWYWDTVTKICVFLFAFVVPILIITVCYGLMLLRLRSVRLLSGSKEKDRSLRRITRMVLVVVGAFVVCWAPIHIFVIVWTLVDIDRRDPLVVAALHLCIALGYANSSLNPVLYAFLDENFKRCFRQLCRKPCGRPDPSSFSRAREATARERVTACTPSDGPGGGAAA

Row | SMILES | Ki [1] [nM] | Ki [2] [nM] | KOR agonist (average percent efficacy relative to cognate agonist) [3] [%] | Ki [4] [nM]
1 | COc1ccc(CN2CC[C@H]3C=CC[C@@H](C(=O)N4CCN(c5ccccc5)CC4)[C@H]3C2=O)cc1OC (racemic) [compound 8915] | 4690 | 8900 | 6.7 | 5540
2 | O=C(Nc1ccccc1)[C@@H]1CC=C[C@@H]2CCN(Cc3ccccc3)C(=O)[C@@H]21 (racemic) [compound 8937, 2-Benzyl-N-phenyl-1-oxo-1,2,3,4,4a,7,8,8a-octahydroisoquinoline-8-carboxamide] | 850 | 146 | 136.6 | 2570
3 | O=C(Nc1ccccc1)[C@@H]1CC=C[C@@H]2CCN(Cc3ccc(Cl)c(Cl)c3)C(=O)[C@@H]21 (racemic) [compound 8941] | 1110 | 259 | 79 | 2700
4 | COc1ccc(CN2CC[C@H]3C=CC[C@@H](C(=O)Nc4ccccc4)[C@H]3C2=O)cc1OC (racemic) [compound 8942] | 4610 | 3060 | 5.4 | 3520
